Tested on: thrombogenesis or thrombus formation
Assay: Inhibitory activity against thrombogenesis, modified arterio-venous shunt thrombosis model in rats
Type: in vivo, male Sprague Dawley rats
Conditions: oral, shunt circulation started 2 h after administration, 30 min circulation, average ±SE (n=6)
Source text: As the test animals, male Sprague Dawley rats of 7 weeks old were purchased from SLC Japan and 6 rats per group were used.
2-Acetoxy-5-(α-cyclopropylcarbonyl-2-fluorobenzyl)-4,5,6,7-tetrahydrothieno[3,2-c]pyridine was synthesized according to the method described in the Specification of Japanese Patent Application Publication No. Hei 6-41139 and was used, while aspirin was purchased from Sigma Chemical Co. and was used. Both compounds were suspended in 5% (w/v) gum arabic solution, and were diluted so as to be 1 ml/kg of administration volume and were orally administered.
The inhibitory activities of the compounds against thrombogenesis or thrombus formation were evaluated in the modified arterio-venous shunt thrombosis model in rats, which was described by Umetsu et al. [Thromb. Haemost., 39, 74-83 (1978)].
The shunt tube was prepared as follows; i.e., both sides of a medical silicon tube of 12 cm length [inner diameter: 1.5 mm, outer diameter: 2.5 mm, purchased from KANEKA Medix Co., Ltd] were connected each to a polyethylene tube of 7 cm length [inner diameter: 0.5 mm, outer diameter: 1.0 mm, purchased from Natsume Seisakusho Co., Ltd.] covered with silicon via a medical silicon tube of 0.7 cm length [inner diameter: 1.0 mm, outer diameter: 1.5 mm, KANEKA Medix Co., Ltd] as connector. A surgical suture of 10 cm length was placed in the silicon tube of 12 cm length.
The animal was anesthetized with an intraperitoneal injection of 40 mg/kg of pentobarbital sodium (purchased from Abbott Laboratories Inc.), and the jugular of one side and the carotid of the other side were exposed. The arteriovenous shunt was made by cannulation of a shunt tube filled with heparin solution [[…], purchased from Fuso Pharmaceutical Co., Ltd] into the carotid and the jugular which had been previously exposed.
The test compounds were orally administered and the blood was started to circulate into the shunt area two hours after the administration. Thirty minutes after the circulation was started, the shunt tube was removed, and the thrombus adsorbed on the surgical suture was weighed. The results in the table are expressed as the average weight ±SE (n=6).

| Compound | Inhibition Rate (Aspirin 10 mg/kg alone) [%] | Thrombus Weight (Aspirin 10 mg/kg alone) [mg] | Inhibition Rate (Compound A 0.3 mg/kg alone) [%] | Thrombus Weight (Compound A 0.3 mg/kg alone) [mg] | Inhibition Rate (Compound A 0.6 mg/kg alone) [%] | Thrombus Weight (Compound A 0.6 mg/kg alone) [mg] |
| --- | --- | --- | --- | --- | --- | --- |
| CC(=O)Oc1ccccc1C(=O)O [Aspirin, aspirin] | 12.3 ± 4.4 | 46.6 ± 2.8 |  |  |  |  |
| CC(=O)Oc1cc2c(s1)CCN(C(C(=O)C1CC1)c1ccccc1F)C2 (stereo not drawn) [Compound A, 2-Acetoxy-5-(α-cyclopropylcarbonyl-2-fluorobenzyl)-4,5,6,7-tetrahydrothieno[3,2-c]pyridine] |  |  | 17.0 ± 4.1 | 43.5 ± 2.1 | 28.3 ± 4.0 | 37.5 ± 2.1 |

Source: patent publication US8404703B2, “Medicinal compositions containing aspirin” (Daiichi Sankyo Company, Limited, priority 2000, dated 2013)
